Assay results as given in article PMC12112476, “Mass Spectrometric ITEM-FOUR Analysis Reveals Coding Single-Nucleotide Polymorphisms in Human Cardiac Troponin T That Evade Detection by Sandwich ELISAs Which Use Monoclonal Antibodies M7 and M11.7 from the Elecsys Troponin T® Assay” (International Journal of Molecular Sciences, 2025).
One block for each sequence: values may come before it.

Tests used:
Type in all cases: binding
[1] = system: monoclonal anti-hcTnT antibody M7; assay: ITEM-FOUR nano-ESI mass spectrometry: in-solution immune complex formation and gas-phase dissociation of M7 antibody–epitope peptide complexes; settings: for in-solution immune complex formation with M7 (binding in words): nano-ESI-MS, 200 mM ammonium acetate pH 6.7, peptide:antibody 2.1:1 (epitope series) or 13:1 (negative controls)
Protocol: (§1) Immune complex-containing solutions of a wild-type epitope peptide and its corresponding antibody, e.g., P11 and M7, were prepared by mixing the two components in 200 mM ammonium acetate buffer (pH 6.7), ensuring a molar excess of the epitope peptide over the antibody to achieve binding saturation. After an incubation period of one hour, the entire mixture (~3 µL) was loaded into a nano-ESI emitter and electrosprayed. The mass spectrometer was configured to transmit only ion signals with m/z values above 3850, effectively eliminating signals from the unbound peptide (Figure 1A).
(§2) Antibody–peptide mixture solutions were prepared for ITEM FOUR experiments by mixing 5 µL of one antibody working solution with one assigned peptide working solution to generate antibody to peptide molar ratios of 1:2.1 for all solutions that contained the M7 antibody. For mixture solutions containing the M11.7 or the anti-TNFα antibody, 1:13 molar ratios were prepared. Antibodies were incubated together with peptides for at least one hour at room temperature prior to analysis.
(§3) Data acquisition for ITEM-FOUR experiments was performed as described in [18] with the Synapt G2S mass spectrometer (Waters MS-Technologies, Wilmslow, UK) and with the following instrumental settings: source temperature, 40 °C; capillary voltage, 1.0–1.3 kV; sample cone voltage, 130 V; source offset voltage, 130 V; trap gas flow (argon), 8.0 mL/min; helium gas: 20 bar. All mass spectra were acquired in positive-ion mode applying a mass window of m/z 200–8000. The quadrupole analyzer was used to block transmission of lower-molecular-mass ions: M1 = 5000 with dwell time of 25% and ramp time of 25%; M2 = 5000 with dwell time of 25% and ramp time of 25%; M3 = 5000. ΔCV in the TRAP collision cell was increased stepwise as follows: 0, 2, 6, 10, 14, 18, 22, 26, 30, 34, 40, 46, 52 and 58 V. The ion mobility separation mode was not used. All acquired scans during a given collision cell voltage difference setting were integrated to obtain an averaged spectrum from which ion intensities were extracted for ITEM-FOUR calculations. Data were acquired and processed with MassLynx software version 4.1 (Waters MS-Technologies). For exact time stamps of all measurements, refer to Table S2 in the Supplement (see also the deposited raw data supplement in the PRIDE directory). All mass spectra for each ΔCV setting were smoothed using the Savitzky-Golay method. Spectra of antibody solutions and antibody–peptide mixture solutions were smoothed using 30 cycles with a 15-mass unit window at the high mass end and at the low mass end with 3 cycles and a 2-mass unit window. All measurements were recorded in duplicate. The mass spectrometric raw data have been deposited via the ProteomeXchange Consortium in the PRIDE partner repository with the dataset identifier PXD058812 [70].
(§4) The Origin Pro 2023b (64-bit, OriginLab Corporation, Northampton, MA, USA) software package with an automation script for processing multiple datasets was used to graphically plot the extracted intensities of the ion signals of all relevant molecular entities (the immune complex with two bound peptides, the immune complex with one bound peptide, free antibodies, and free peptides) against their corresponding charge state for each collision cell voltage difference (ΔCV). Subsequently, Gaussian curve fittings were performed separately for each molecular entity. […] Iterations were performed for R2 values to be at least 0.91. Apices of Gaussian curves provided the intensities and the average m/z values for each molecular species. Intensity values of individual molecular entities (educts and products) were summed and normalized. Normalized intensities of educts and products from duplicate measurements were averaged.
(§5) The number of atoms from rituximab was used because the amino acid sequences of neither the M7 nor the M11.7 antibody were disclosed. […]

[2] = system: monoclonal anti-hcTnT antibody M11.7; assay: ITEM-FOUR nano-ESI mass spectrometry: in-solution immune complex formation and gas-phase dissociation of M11.7 antibody–epitope peptide complexes; settings: for in-solution immune complex formation with M11.7 (binding in words): nano-ESI-MS, 200 mM ammonium acetate pH 6.7
Protocol: as §1, §2, §3, §4, §5

anti-TNFα antibody = assay: Nano-ESI-MS negative control: epitope peptide mixed with an unrelated antibody; settings: 200 mM ammonium acetate pH 6.7, peptide:antibody 13:1
Protocol: Negative controls were investigated to confirm specificity of in-solution complex formations. […] To further rule out non-specific interactions for epitope peptide P11 or epitope peptide P21, either of them was separately mixed with an unrelated anti-TNFα antibody (Figures S46 and S47).
The anti-TNFα antibody stock solution (2 µg/µL) was prepared from lyophilized antibody powder (article number: MAS: 23720, ThermoFisher Scientific) and 200 mM ammonium acetate (pH 6.7).
as §2
Data acquisition for ITEM-FOUR experiments was performed as described in [18] with the Synapt G2S mass spectrometer (Waters MS-Technologies, Wilmslow, UK) and with the following instrumental settings: source temperature, 40 °C; capillary voltage, 1.0–1.3 kV; sample cone voltage, 130 V; source offset voltage, 130 V; trap gas flow (argon), 8.0 mL/min; helium gas: 20 bar. […] All measurements were recorded in duplicate. […]

[3] = apparent gas-phase dissociation constant, dimensionless number, extrapolated to ambient temperature
[4] = class by difference of normalized product ion intensities over ΔCV
[5] = pseudo thermodynamic value of gas-phase complex dissociation, Ellingham diagram read at Tamb
[6] = pseudo thermodynamic value of gas-phase complex dissociation, extrapolated to Tamb

in-solution immune complex formation with M7 (binding in words) [1]: no immune complexes were detected
KD m0g# [Ø] [2, 3]: 0.92 Ø
Sequence: AEQQRIRNEREKERQ [Peptide P21]
dx (V) ([2]; Boltzmann curve parameter, peptide:antibody 13:1, averaged from two acquisitions): 5.77 V
Binding Type [2, 4]: orthodox (The differences in normalized product ion intensity values were always greater than 15 percentage points)
ΔCV50 (V) ([2]; collision cell voltage difference for 50% dissociation, Boltzmann fit, peptide:antibody 13:1, averaged from two acquisitions): 12.77 V
Final (%) ([2]; normalized product ion quantity at highest applied ΔCV, peptide:antibody 13:1, 200 mM ammonium acetate pH 6.7, averaged from two acquisitions): 96.29%
Initial (%) ([2]; normalized product ion quantity at lowest applied ΔCV, peptide:antibody 13:1, 200 mM ammonium acetate pH 6.7, at least 1 h RT, nano-ESI, ΔCV 0-58 V, averaged from two acquisitions): 56.91%
ΔGm0g# [2, 5]: 0.0502 kcal/mol
Tamb ΔSm0g# [2, 6]: 17.28 kcal/mol
ΔHm0g# [2, 6]: 17.34 kcal/mol
Slope (%/V) ([2]; slope of Boltzmann curve, peptide:antibody 13:1, averaged from two acquisitions): 1.71 %/V
in-solution immune complex formation with anti-TNFα antibody (anti-TNFα antibody): No immune complex signals were observed

in-solution immune complex formation with M7 (binding in words) [1]: did not produce any immune complexes
in-solution immune complex formation with M11.7 (binding in words) ([2]; peptide:antibody 13:1): did not produce any immune complexes
Sequence: GPSIVHRKSFHHHHHH [His-tag peptide, unrelated His-tag peptide used as negative control, reference compound]

KD m0g# [Ø] [1, 3]: 0.59 Ø
in-solution immune complex formation with M11.7 (binding in words) ([2]; peptide:antibody 13:1): no immune complexes were detected
Sequence: LVSLKDRIERRRAER [Peptide P11]
dx (V) ([1]; Boltzmann curve parameter, peptide:antibody 2.1:1, averaged from two acquisitions): 6.69 V
Binding Type [1, 4]: orthodox (The differences in normalized product ion intensity values were always greater than 15 percentage points)
ΔCV50 (V) ([1]; collision cell voltage difference for 50% dissociation, Boltzmann fit, peptide:antibody 2.1:1, averaged from two acquisitions): 25.27 V
Final (%) ([1]; normalized product ion quantity at highest applied ΔCV, peptide:antibody 2.1:1, 200 mM ammonium acetate pH 6.7, averaged from two acquisitions): 84.36%
Initial (%) ([1]; normalized product ion quantity at lowest applied ΔCV, peptide:antibody 2.1:1, 200 mM ammonium acetate pH 6.7, at least 1 h RT, nano-ESI, ΔCV 0-58 V, averaged from two acquisitions): 56.43%
ΔGm0g# [1, 5]: 0.306 kcal/mol
Tamb ΔSm0g# [1, 6]: 9.312 kcal/mol
ΔHm0g# [1, 6]: 9.62 kcal/mol
Slope (%/V) ([1]; slope of Boltzmann curve, peptide:antibody 2.1:1, averaged from two acquisitions): 1.04 %/V
in-solution immune complex formation with anti-TNFα antibody (anti-TNFα antibody): No immune complex signals were observed
